Source: US11046714B2, “2,2-difluorodioxolo A2A receptor antagonists” (Merck Sharp & Dohme Corp., priority 2013, dated 2021)

Molecular target: human A2A receptor (Homo sapiens (Human), UniProt P29274)
Assay: competition binding assay using Scintillation Proximity technology
Conditions: membranes from CHO-K1 cells expressing the human A2a receptor; 2.0 nM tritiated compound; Cheng-Prusoff
Experimental: The utility of the compounds in accordance with the present invention as A2A receptor antagonists may be readily determined without undue experimentation by methodologies well known in the art, including by a competition binding assay using Scintillation Proximity technology. Briefly, membranes from CHO-K1 cells expressing the human A2A receptor are incubated with a test compound at various concentrations, e.g., ranging from 3000 nM to 0.15 nM, in a reaction mixture also containing a tritiated form of 5-amino-7-[2-phenethyl]-2-(furan-2-yl)-7H-pyrazolo[4,3-e][1,2,4]triazolo[1,5-c]pyrimidine (the tritiated compound) and wheatgerm agglutin-coated yttrium silicate SPA beads at room temperature. The beads are then allowed to settle to the bottom of the wells, after which the membrane-associated radioactivity is determined by scintillation counting in a microplate reader. Ki values can be determined using the Cheng-Prusoff equation.
Thus, 1.0 μg of membranes from CHO-K1 cells expressing the human A2a receptor were incubated with a compound of the invention at concentrations ranging from 3000 nM to 0.15 nM in a reaction mixture also containing 2.0 nM of a tritiated form of 5-amino-7-[2-phenethyl]-2-(furan-2-yl)-7H-pyrazolo[4,3-e][1,2,4]triazolo[1,5-c]pyrimidine (the tritiated compound) and 100 μg of wheatgerm agglutin-coated yttrium silicate SPA beads for one hour at room temperature with agitation. The beads were then allowed to settle to the bottom of the wells for 1 hr, after which the membrane-associated radioactivity was determined by scintillation counting in a TopCount microplate reader. Ki values were determined using the Cheng-Prusoff equation.
Summary of Materials and Methods Used in A2a Activity Determination:
• Membranes from CHO-K1 cells expressing the human Adenosine2A receptor (Perkin-Elmer #RBHA2AM400UA). • The tritiated compound was prepared according to published methods. • Wheatgerm agglutinin-coated yttrium silicate SPA beads (GE Healthcare #RPNQ0023). Dilute to 25 mg/ml in Assay Buffer. • Assay Buffer: Dulbecco's calcium and magnesium free phosphate buffered saline+10 mM MgCl2 • Adenosine deaminase (ADA) from calf intestine, 10 mg/2 ml (Roche #10 102 105 001). • DMSO • A2a antagonist standard (9-chloro-1-(2-furanyl)-[1,2,4]triazolo[1,5-c]quinazolin-5-amine from Tocris Bioscience) Compound Dilution • Make eight 1:3 serial dilutions in 100% DMSO from a 3 mM compound stock. • Transfer 50 nL of compound into a 384-well OptiPlate (Perkin Elmer). • Typically, final concentrations of compound used in the assay ranged from 3000 nM to 0.152 nM. Radioisotope • Dilute a solution of the tritiated compound to 5.0 nM in assay buffer. This is a 2.5× solution. The final concentration in the assay is 2.0 nM. Calculate the concentration by counting two 5 μL aliquots. Membrane Preparation • Use 1.0 μg of membrane/well. Dilute membranes to 33 μg/mL in assay buffer. Treat with 20 μg/mL ADA for 15 minutes at room temperature to degrade endogenous adenosine. Membrane-Bead Mixture • Use 100 μg/well wheatgerm agglutinin-coated yttrium silicate SPA beads. • Mix ADA-treated membranes and SPA beads together for 30 min prior to assay. Assay Assembly • To the Perkin-Elmer Optiplate-384 containing the compound titration add 20 μL of 2.5× solution of the tritiated compound and 30 μL of the membrane-bead mixture. Incubate for one hour at room temperature with agitation. • Include total binding (assay buffer+1% DMSO) and non-specific binding (CGS 15943, 1 μM) wells. Counting • Allow the beads to settle for one hour. • Count in TopCount. Calculations • A curve fitting program (i.e., Prism, Activity Base, Chemcart) is used to determine the EC50. The Ki value is calculated using the Cheng-Prusoff equation. Ki=EC50/(1+(radioligand concentration/Kd))

Chain of human A2A receptor (P29274 whole entry): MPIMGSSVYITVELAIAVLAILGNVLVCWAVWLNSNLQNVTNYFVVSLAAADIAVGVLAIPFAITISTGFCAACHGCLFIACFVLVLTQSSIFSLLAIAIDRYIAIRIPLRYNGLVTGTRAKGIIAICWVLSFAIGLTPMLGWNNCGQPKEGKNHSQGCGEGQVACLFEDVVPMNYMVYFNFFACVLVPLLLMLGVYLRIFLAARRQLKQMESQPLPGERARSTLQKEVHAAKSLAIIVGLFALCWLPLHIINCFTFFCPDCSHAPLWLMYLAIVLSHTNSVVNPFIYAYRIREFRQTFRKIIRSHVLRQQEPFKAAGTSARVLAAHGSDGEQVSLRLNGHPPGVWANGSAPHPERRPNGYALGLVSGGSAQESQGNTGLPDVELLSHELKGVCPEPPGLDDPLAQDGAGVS

SMILES | Ki [nM]
CCc1nnc2n1CCN(CCc1nc3c4ccc5c(c4nc(N)n3n1)OC(F)(F)O5)C2 [Example 10, 8-[2-(3-ethyl-5,6-dihydro[1,2,4]triazolo[4,3-a]pyrazin-7(8H)-yl)ethyl]-2,2-difluoro[1,3]dioxolo[4,5-h][1,2,4]triazolo[1,5-c]quinazolin-5-amine] | 1.6
Cc1nc2c(o1)CN(CCc1nc3c4ccc5c(c4nc(N)n3n1)OC(F)(F)O5)CC2 [Example 12, 2,2-difluoro-8-[2-(2-methyl-6,7-dihydro[1,3]oxazolo[5,4-c]pyridin-5(4H)-yl)ethyl][1,3] dioxolo[4,5-h][1,2,4]triazolo [1,5-c]quinazolin-5-amine] | 1.5
Cc1nc2c(s1)CCN(CCc1nc3c4ccc5c(c4nc(N)n3n1)OC(F)(F)O5)C2 [Example 13, 2,2-difluoro-8-[2-(2-methyl-6,7-dihydro[1,3]thiazolo[4,5-c]pyridin-5(4H)-yl)ethyl][1,3] dioxolo[4,5-h][1,2,4]triazolo [1,5-c]quinazolin-5-amine] | 1.8
Nc1nc2c3c(ccc2c2nc(CCN4CCc5nc(C6CC6)oc5C4)nn12)OC(F)(F)O3 [Example 14, 8-[2-(2-cyclopropyl-6,7-dihydro[1,3]oxazolo[5,4-c]pyridin-5(4H)-yl)ethyl]-2,2-difluoro[1,3]dioxolo[4,5-h][1,2,4]triazolo[1,5-c]quinazolin-5-amine] | 0.9
CC1(F)CN(CCc2nc3c4ccc5c(c4nc(N)n3n2)OC(F)(F)O5)C1 [Example 16, 2,2-difluoro-8-[2-(3-fluoro-3-methylazetidin-1-yl)ethyl] [1,3]dioxolo[4,5-h][1,2,4] triazolo[1,5-c]quinazolin-5-amine] | 3.2
CCC1(F)CN(CCc2nc3c4ccc5c(c4nc(N)n3n2)OC(F)(F)O5)C1 [Example 17, 8-[2-(3-ethyl-3-fluoroazetidin-1-yl)ethyl]-2,2-difluoro[1,3] dioxolo[4,5-h][1,2,4]triazolo [1,5-c]quinazolin-5-amine] | 3.5
Nc1nc2c3c(ccc2c2nc(CCN4CC(F)(C5CC5)C4)nn12)OC(F)(F)O3 [Example 18, 8-[2-(3-cyclopropyl-3-fluoroazetidin-1-yl)ethyl]-2,2-difluoro[1,3]dioxolo[4,5-h][1,2,4]triazolo[1,5-c]quinazolin-5-amine] | 1.6
Nc1nc2c3c(ccc2c2nc(CCN4CC(F)(F)C4)nn12)OC(F)(F)O3 [Example 19, 8-[2-(3,3-difluoroazetidin-1-yl)ethyl]-2,2-difluoro[1,3] dioxolo[4,5-h][1,2,4]triazolo [1,5-c]quinazolin-5-amine] | 3
C[C@@H]1C[C@H](F)CN1CCc1nc2c3ccc4c(c3nc(N)n2n1)OC(F)(F)O4 [Example 22, 2,2-difluoro-8-{2-[(2R,4S)-4-fluoro-2-methylpyrrolidin-1-yl]ethyl}[1,3]dioxolo[4,5-h][1,2,4]triazolo[1,5-c]quinazolin-5-amine] | 1.5
Nc1nc2c3c(ccc2c2nc(CCN4C[C@H](F)[C@@H](F)C4)nn12)OC(F)(F)O3 [Example 23, 8-{2-[(3S,4S)-3,4-difluoropyrrolidin-1-yl]ethyl}-2,2-difluoro[1,3]dioxolo[4,5-h][1,2,4]triazolo[1,5-c]quinazolin-5-amine] | 1.6
Nc1nc2c3c(ccc2c2nc(CCN4CCC(F)(F)C4)nn12)OC(F)(F)O3 [Example 24, 8-[2-(3,3-difluoropyrrolidin-1-yl)ethyl]-2,2-difluoro[1,3] dioxolo[4,5-h][1,2,4]triazolo [1,5-c]quinazolin-5-amine] | 1.4
C[C@@H]1CC(F)(F)CN1CCc1nc2c3ccc4c(c3nc(N)n2n1)OC(F)(F)O4 [Example 25] | 1.1
C[C@H]1CC(F)(F)CN1CCc1nc2c3ccc4c(c3nc(N)n2n1)OC(F)(F)O4 [Example 26, 8-{2-[(2S)-4,4-difluoro-2-methylpyrrolidin-1-yl]ethyl}-2,2-difluoro[1,3]dioxolo[4,5-h][1,2,4]triazolo[1,5-c]quinazolin-5-amine] | 3

Other lines, results leading:

Ki [nM] | SMILES
2.9 | Nc1nc2c3c(ccc2c2nc(Cc4cccnc4Cl)nn12)OC(F)(F)O3 [Example 3, 8-((2-chloropyridin-3-yl)methyl)-2,2-difluoro-[1,3]dioxolo[4,5-h][1,2,4]triazolo[1,5-c]quinazolin-5-amine]
8.3 | Nc1nc2c3c(ccc2c2nc(Cc4cccnc4N4CC[C@@H](c5ccc(F)cc5)C4)nn12)OC(F)(F)O3 [Example 4, (S)-2,2-difluoro-8-((2-(3-(4-fluorophenyl)pyrrolidin-1-yl)pyridin-3-yl)methyl)-[1,3]dioxolo[4,5-h][1,2,4]triazolo[1,5-c]quinazolin-5-amine]
15 | Nc1nc2c3c(ccc2c2nc(Cc4cccnc4N4CC[C@@H](c5ccc(C(F)(F)F)cc5)C4)nn12)OC(F)(F)O3 [Example 5, (S)-2,2-difluoro-8-((2-(3-(4-(trifluoromethyl)phenyl)pyrrolidin-1-yl)pyridin-3-yl)methyl)-[1,3]dioxolo[4,5-h][1,2,4]triazolo[1,5-c]quinazolin-5-amine]
6.5 | Nc1nc2c3c(ccc2c2nc(CCN4Cc5cccnc5C4)nn12)OC(F)(F)O3 [Example 6]
3.1 | Nc1nc2c3c(ccc2c2nc(CCN4Cc5ccc(C(F)(F)F)cc5C4)nn12)OC(F)(F)O3 [Example 7, 2,2-difluoro-8-{2-[5-(trifluoromethyl)-1,3-dihydro-2H-isoindol-2-yl]ethyl}[1,3]-dioxolo[4,5-h][1,2,4]triazolo [1,5-c]quinazolin-5-amine]
2.1 | Nc1nc2c3c(ccc2c2nc(CCN4Cc5ccc(F)cc5C4)nn12)OC(F)(F)O3 [Example 8, 2,2-difluoro-8-[2-(5-fluoro-1,3-dihydro-2H-isoindol-2-yl)ethyl][1,3]dioxolo[4,5-h][1,2,4]triazolo[1,5-c]quinazolin-5-amine]
3.8 | Nc1nc2c3c(ccc2c2nc(CCN4Cc5cnc(C(F)(F)F)nc5C4)nn12)OC(F)(F)O3 [Example 9, 2,2-difluoro-8-{2-[2-(trifluoromethyl)-5,7-dihydro-6H-pyrrolo[3,4-d]pyrimidin-6-yl]ethyl}[1,3]dioxolo[4,5-h][1,2,4]triazolo[1,5-c]quinazolin-5-amine]
2.1 | Nc1nc2c3c(ccc2c2nc(CCN4Cc5ccncc5C4)nn12)OC(F)(F)O3 [Example 11, 8-[2-(1,3-dihydro-2H-pyrrolo[3,4-c]pyridin-2-yl)ethyl]-2,2-difluoro[1,3] dioxolo[4,5-h][1,2,4]triazolo [1,5-c]quinazolin-5-amine]
2.5 | Nc1nc2c3c(ccc2c2nc(CCN4CC(F)C4)nn12)OC(F)(F)O3 [Example 15, 2,2-difluoro-8-[2-(3-fluoroazetidin-1-yl)ethyl] [1,3]dioxolo[4,5-h][1,2,4] triazolo[1,5-c]quinazolin-5-amine]
12 | Nc1nc2c3c(ccc2c2nc(CCN4CC(O)(C(F)(F)F)C4)nn12)OC(F)(F)O3 [Example 20, 1-[2-(5-amino-2,2-difluoro [1,3]diozolo[4,5-h][1,2,4]triazolo[1,5-c]quinazolin-8-yl)ethyl]-3-(trifluoromethyl) azetidin-3-ol]
3.4 | Nc1nc2c3c(ccc2c2nc(CCN4CC(F)(C(F)(F)F)C4)nn12)OC(F)(F)O3 [Example 21, 2,2-difluoro-8-{2-[3-fluoro-3-(trifluoromethyl)azetidin-1-yl]ethyl}[1,3]dioxolo[4,5-h][1,2,4]triazolo[1,5-c]quinazolin-5-amine]
7.8 | Nc1nc2c3c(ccc2c2nc(CCN4CCC(F)CC4)nn12)OC(F)(F)O3 [Example 27, 2,2-difluoro-8-[2-(4-fluoropiperidin-1-yl)ethyl] [1,3]dioxolo[4,5-h][1,2,4] triazolo[1,5-c]quinazolin-5-amine]
